Entries after “also recorded” stand apart in the source; their conditions may differ.
Assays:
HCT-116 cells = assay: Traditional in vitro cell culture assay, HCT-116 cells on poly-lysine treated glass coverslips; assay type: cell-based, human; conditions: for cell death of HCT-116 cells, traditional cell culture assay: coverslips, no liver cells, 48 hr exposure
Experimental: (§1) FIG. 16 Tegafur dose response. Chips were seeded with HepG2-C3A cells in the liver compartment and HCT-116 colon cancer cells in the target tissues compartment. The chips were treated with indicated concentrations of tegafur for 24 hours. The first graph (FIG. 16A) is a plot of percentage dead cells vs. tegafur or 5-FU concentration after 24 hours of re-circulation on the chip. The second graph (FIG. 16B) is a similar dose response using a traditional in vitro cell culture assay with HCT 116 cells using a 48 hour exposure. HCT-116 cells were seeded on poly-lysine treated glass coverslips and exposed to either tegafur or 5-FU at the indicated concentrations. After a 48 hr incubation, coverslips were treated as described above and the percentage of cell death was determined.
To measure the cytotoxic effects of tegafur against colon cancer cells, the microscale chip was prepared with HepG2-C3A cells in the liver compartment and HCT-116 human colon cancer cells in the target tissue compartment. Tegafur was added to the re-circulating medium at various concentrations for 24 hours and the cells labeled with Hoechst 33342, a membrane permeable DNA dye, and ethidium homodimer, a membrane impermeable DNA dye (see Methods Section).

[1] = test system: HT29 human colon cancer cells; assay: Microscale chip, HepG2-C3A cells in liver compartment and HT29 cells in target tissue compartment, LIVE/DEAD staining; assay type: cell-based; conditions: 24 hours; for efficacy against HT-29 colon cancer cells on chip: HepG2-C3A cells in liver compartment, HT-29 cells with mutant p53
Source text: (§2) LIVE/DEAD stain is a two-component stain consisting of calcein AM and ethidium homodimer. Living cells actively hydrolyze the acetoxymethyl ester (AM) moiety of calcein AM to produce bright green fluorescence of calcein. In contrast, cells that have compromised membrane integrity allow the normally membrane impermeant ethidium homodimer to stain the nucleus of dead or dying cells fluorescent red. The cell permeant nuclear stain, Hoechst 33342 acts as a general stain for all cells. Together with the appropriate filter sets, living cells fluoresce green, dying or dead cells red, and all cells are quantified by a blue nuclear fluorescence. For experiments described herein, trypan blue was used at 0.2% (w/v), calcein AM at 1:20,000, propidium iodide at 1:5,000, and Hoechst 33342 at 10 μg/ml. Cells were visualized with a M2Bio stereofluorescence microscope (Zeiss). All experiments were repeated at least three times and measurements done in triplicate.

[2] = test system: HCT-116 human colon cancer cells; conditions: for cell death of HCT-116 cells on chip without liver compartment cells: chips seeded with HCT-116 cells only, no cells in liver compartment, 24 hours
Experimental: as §1, with “Chips were seeded with HepG2-C3A cells in the liver compartment and HCT-116 colon cancer cells in the target tissues compartment.” left out
as §2
[…] Tegafur was added to the re-circulating medium at various concentrations for 24 hours and the cells labeled with Hoechst 33342, a membrane permeable DNA dye, and ethidium homodimer, a membrane impermeable DNA dye (see Methods Section).

HepG2/C3A cells [3] = assay: LIVE/DEAD assay, HepG2/C3A cells on poly-D-lysine treated glass coverslips; assay type: cell-based, human; conditions: 1 μM, 24 hours
Source text: as §2
The LIVE/DEAD assay was optimized (see Methods section) using cells grown on glass coverslips. Briefly, HepG2/C3A cells were seeded onto poly-D-lysine treated glass coverslips and treated with and without 1 μM staurosporine for 24 hours. […]

HCT116 cells [4] = assay: LIVE/DEAD cytotoxicity assay on the microscale chip system (HepG2/C3A liver, HCT116 target tissues); assay type: cell-based, human; conditions: 1 μM, 24 hour treatment, compared to untreated control cell chips
Source text: as §2
(§3) Two different assays to detect apoptosis were investigated. The first assay was the immunofluorescence-based terminal deoxynucleotidyl transferase BrdU nick end labeling (TUNEL) technique available in kit form as APOPTAG™ (Intergen Co., MA) (see Methods section).

HepG2/C3A cells [5] = assay: APOPTAG (TUNEL) apoptosis assay, HepG2/C3A cells on glass coverslips; assay type: cell-based, human; conditions: 1 μM, 24-hour incubation, compared to untreated controls
Source text: (§4) In contrast to annexin V labeling, the APOPTAG™ kit (Intergen Co., MA) uses terminal deoxynucleotidyl transferase to label free 3′-OH DNA termini exposed during apoptotic DNA degradation and visualization using immunofluorescence (Li, X., Traganos, F., Melamed, M. R., and Darzynkiewicz, Z. (1995). Single-step procedure for labeling DNA strand breaks with flourescein- or BODIPY-conjugated deoxynucleotides: detection of apoptosis and bromodeoxyuridine incorporation. Cytometry 20, 172-180). Although this method is highly specific for apoptosis, the procedure cannot be done on-chip due to the fixation and incubation steps. Briefly, microscale chips were run under specified experimental conditions, the cell chips were removed from their housing units, fixed in 1% paraformaldehyde and processed with the APOPTAG™ kit using the manufacturer's protocol.
as §3, with “section). The assay was first optimized using cells grown on glass coverslips. Briefly, HepG2/C3A cells were seeded onto poly-D-lysine treated glass coverslips and treated with and without staurosporine. Coverslips were processed as described (see Methods section).” for “section).”

HCT116 cells [6] = assay: APOPTAG (TUNEL) apoptosis assay on microscale chip (HepG2/C3A liver, HCT116 target tissues); assay type: cell-based, human; conditions: 1 μM, 24 hour exposure, compared to untreated controls
Source text: as §4
as §3, with “section). The assay was first optimized using cells grown on glass coverslips. Briefly, HepG2/C3A cells were seeded onto poly-D-lysine treated glass coverslips and treated with and without staurosporine. Coverslips were processed as described (see Methods section).” for “section).”

[7] = test system: HepG2/C3A cells in the liver compartment and HCT116 cells in the target tissues compartment; assay: Annexin V-FITC apoptosis assay on microscale chip system; assay type: cell-based, human; conditions: 1 μM, 6-hour treatment, compared to untreated control cell chips
Experimental: With the microscale chip, annexin V-FITC labeling was visualized directly on-chip, by first flushing the system with PBS, then recirculating annexin V-FITC (10 μg/ml in annexin V binding buffer, Clontech) for 30 min. Cells were then visualized directly using a FITC filter set.
Briefly, the microscale chip cell chips were seeded with HepG2/C3A cells in the liver compartment and HCT116 cells in the target tissues compartment. Cell chips were loaded onto the microscale chip system and treated with and without 1 μM staurosporine as described above. After a 6-hour incubation, the re-circulating medium was switched to PBS containing Annexin V-FITC and Hoechst 33342 and allowed to flow through the system for 30 minutes. Cell chips were removed from the acrylic housing and visualized under a fluorescent microscope. Cells were visualized under a fluorescent microscope and fluorescent images of identical fields were obtained using the appropriate filter sets.

For `O=c1[nH]c(=O)n(C2CCCO2)cc1F` (centres unmarked) [Tegafur, 5-fluoro-1-(2-tetrahydrofuryl)-2,4(1H,3H)-pyrimidi-nedione], the “cell death of HCT-116 cells, traditional cell culture assay” value (HCT-116 cells) was “ineffective”, the “efficacy against HT-29 colon cancer cells on chip” value [1] was “ineffective” and the “cytotoxicity to HCT-116 cells on chip” value [2] was “cytotoxic to HCT-1-16-cells in a dose dependent fashion”. For the same molecule, the “cell death of HCT-116 cells on chip without liver compartment cells” value [2] was “did not cause significant cell death”.
`O=c1[nH]cc(F)c(=O)[nH]1` [5-FU, 5-fluorouracil] was tested, and the “exposure before cytotoxicity was observed, traditional cell culture assay” value (HCT-116 cells; HCT-116 cells on coverslips) was at least 48 h, the “cell death of HCT-116 cells, traditional cell culture assay” value (HCT-116 cells) was “triggered cell death” and the “cell death of HCT-116 cells on chip without liver compartment cells” value [2] was “caused substantial cell death”.
In the case of `CN[C@@H]1C[C@H]2O[C@@](C)([C@@H]1OC)n1c3ccccc3c3c4c(c5c6ccccc6n2c5c31)C(=O)NC4` [Staurosporine], the “cell death of HepG2/C3A cells (LIVE/DEAD)” value (HepG2/C3A cells [3]) is reported as “clearly cause cell death”, the “cell death of HCT116 cells on chip (LIVE/DEAD)” value (HCT116 cells [4]) is reported as “Significant cell death; also recorded: significant apoptosis (or cytotoxicity)” and the “apoptosis of HepG2/C3A cells (APOPTAG)” value (HepG2/C3A cells [5]) is reported as “caused significant apoptosis”. For the same molecule, the “apoptosis of HCT116 cells on chip (APOPTAG)” value (HCT116 cells [6]) was “significant apoptosis (or cytotoxicity)” and the “apoptosis on chip (annexin V-FITC)” value [7] was “caused significant apoptosis”.
`CC1=C(CC(=O)O)c2cc(F)ccc2/C1=C\c1ccc([S+](C)[O-])cc1` (centres unmarked) [Sulindac, sulindac sulfoxide] was tested, and the “efficacy against HT-29 colon cancer cells on chip” value [1] was “effective” and the “cell death of HT29 cells in target tissue compartment” value ([1]; One hundred micromoles, in the absence of the HepG2-C3A liver cells) was “minimal levels of cell death”.

— patent US9273276B2, “Devices and methods for pharmacokinetic-based cell culture system” (priority 2001, dated 2016)
